Results: patent publication US9758491B2, “Molecules having pesticidal utility, and intermediates, compositions, and processes, related thereto” (priority 2015, dated 2017)

Experiments:
Type in all cases: in vivo
[1] = tested on: Beet Armyworm (Spodoptera exigua, LAPHEG); experiment: Bioassay on Beet Armyworm (BAW), 128-well diet tray assay; details: 168 h, 50 μg/cm^2 on artificial diet, second instar larvae, 25° C., five to seven days, average of eight wells, read-out: BAW rating, % Control (or Mortality)
Experimental: (§1) Certain molecules disclosed in this document were tested against BAW and CL using procedures described in the following examples. In the reporting of the results, the “BAW & CL Rating Table” was used (See Table Section).
Bioassays on BAW were conducted using a 128-well diet tray assay. One to five second instar BAW larvae were placed in each well (3 mL) of the diet tray that had been previously filled with 1 mL of artificial diet to which 50 μg/cm^2 of the test molecule (dissolved in 50 μL of 90:10 acetone-water mixture) had been applied (to each of eight wells) and then allowed to dry. Trays were covered with a clear self-adhesive cover, vented to allow gas exchange, and held at 25° C., 14:10 light-dark for five to seven days. Percent mortality was recorded for the larvae in each well; activity in the eight wells was then averaged. The results are indicated in the table entitled “Table ABC: Biological Results” (See Table Section).

[2] = tested on: Cabbage Looper (Trichoplusia ni, TRIPNI); experiment: Bioassay on Cabbage Looper (CL), 128-well diet tray assay; details: 168 h, 50 μg/cm^2 on artificial diet, second instar larvae, 25° C., five to seven days, average of eight wells, read-out: CL rating, % Control (or Mortality)
Experimental: as §1
Bioassays on CL were conducted using a 128-well diet tray assay. One to five second instar CL larvae were placed in each well (3 mL) of the diet tray that had been previously filled with 1 mL of artificial diet to which 50 μg/cm^2 of the test molecule (dissolved in 50 μL of 90:10 acetone-water mixture) had been applied (to each of eight wells) and then allowed to dry. Trays were covered with a clear self-adhesive cover, vented to allow gas exchange, and held at 25° C., 14:10 light-dark for five to seven days. Percent mortality was recorded for the larvae in each well; activity in the eight wells was then averaged. The results are indicated in the table entitled “Table ABC: Biological Results” (See Table Section).

[3] = tested on: Yellow Fever Mosquito (Aedes aegypti, AEDSAE); experiment: Bioassay on Yellow Fever Mosquito (YFM) larvae, 96-well plate; details: 4000 ppm DMSO master solution diluted, about 1 day-old larvae, room temperature, scored after 3 days
Experimental: Certain molecules disclosed in this document were tested against YFM using procedures described in the following paragraph. In the reporting of the results, the “YFM Rating Table” was used (See Table Section).
Master plates containing 400 μg of a molecule dissolved in 100 μL of dimethyl sulfoxide (DMSO) (equivalent to a 4000 ppm solution) are used. A master plate of assembled molecules contains 15 μL per well. To this plate, 135 μL of a 90:10 water/acetone mixture is added to each well. A robot (Biomek® NXP Laboratory Automation Workstation) is programmed to dispense 15 μL aspirations from the master plate into an empty 96-well shallow plate (“daughter” plate). There are 6 reps (“daughter” plates) created per master. The created “daughter” plates are then immediately infested with YFM larvae.
The day before plates are to be treated, mosquito eggs are placed in Millipore water containing liver powder to begin hatching (4 g into 400 mL). After the “daughter” plates are created using the robot, they are infested with 220 μL of the liver powder/larval mosquito mixture (about 1 day-old larvae). After plates are infested with mosquito larvae, a non-evaporative lid is used to cover the plate to reduce drying. Plates are held at room temperature for 3 days prior to grading. After 3 days, each well is observed and scored based on mortality. The results are indicated in the table entitled “Table ABC: Biological Results” (See Table Section).

Structure (SMILES) | mortality at 50 µg/cm2 [1] [%] | mortality at 50 µg/cm2 [2] [%] | YFM rating, % Control (or Mortality) [3]
Cc1ccc(F)cc1N1CCN/C1=N\C(=O)Nc1ccc(-c2ncn(-c3ccc(OC(F)(F)F)cc3)n2)cc1 [F13, (E)-1-(1-(5-Fluoro-2-methylphenyl)imidazolidin-2-ylidene)-3-(4-(1-(4-(trifluoromethoxy)phenyl)-1H-1,2,4-triazol-3-yl)phenyl)urea] | 50 to 100 | 50 to 100 | D (No activity noticed in this bioassay)
Cc1cc(C)c(N2CCN/C2=N\C(=O)Nc2ccc(-c3ncn(-c4ccc(OC(F)(F)F)cc4)n3)cc2)c(C)c1 [F17, (E)-1-(1-Mesitylimidazolidin-2-ylidene)-3-(4-(1-(4-(trifluoromethoxy)phenyl)-1H-1,2,4-triazol-3-yl)phenyl)urea] | 50 to 100 | 50 to 100 | A (80-100)
